Structures are written as SMILES.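 Five compound concentrations were applied to cells in 96-well plates for 48 hours; endpoints were derived by simple linear interpolation of the resulting dose-response curve. GI50 = concentration required for 50% inhibition of growth. TGI: total growth inhibition.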

The record followed here is PubChem BioAssay (NCI).

For the first test, the system named is CAKI-1 renal. Nature of the test: NCI tumour cell line growth inhibition, 48 h.
For the molecule `O=C(O)c1cc([N+](=O)[O-])cc2c(=O)c3cnccc3[nH]c12`, the TGI is greater than 100 µM.
In the case of `CCCCCCCCCCCCCCCCCCOc1ccccc1CC(=O)OCC[N+]1(C)CCCCC1`, the GI50 was 1.74 µM and the TGI worked out at 4.87 µM.
In turn, `Nc1ncnc2c1ncn2C=C=CCO` returned a TGI greater than 100 µM.
Same read-out and setting: for `CN1CCc2[nH]c3ccccc3c2C1` the value was greater than 100 µM; for `C[C@]12C=CC(=O)C=C1CC[C@@H]1[C@@H]2CC[C@]2(C)OC(=O)CC[C@@H]12`, greater than 404 µM.
For the molecule `Nc1ncnc2nc[nH]c12`, the GI50 is 58.9 µM and the TGI was greater than 250 µM.
For the molecule `CN1CCOC(c2ccc(Cl)cc2)O1` (configuration not stated), the TGI was greater than 100 µM.
The same measure, in the same setting: the same measure for `CCOc1ccc(NC(=O)C(=O)CC(=O)c2sc(NNC(C)=O)nc2C)cc1`: greater than 100 µM.

The next test has as its system HCT-15 colon. The experiment in a line: NCI tumour cell line growth inhibition, 48 h.
For the molecule `O=C(O)c1cc([N+](=O)[O-])cc2c(=O)c3cnccc3[nH]c12`, the TGI was greater than 100 µM.
Turning to `CCCCCCCCCCCCCCCCCCOc1ccccc1CC(=O)OCC[N+]1(C)CCCCC1`, the GI50 is 4.65 µM and the TGI came to 27.7 µM.
With `Nc1ncnc2c1ncn2C=C=CCO`, the TGI was greater than 100 µM.
`CN1CCc2[nH]c3ccccc3c2C1` displayed a TGI greater than 100 µM.
On the same count and under the same terms, the same measure for `C[C@]12C=CC(=O)C=C1CC[C@@H]1[C@@H]2CC[C@]2(C)OC(=O)CC[C@@H]12`: greater than 500 µM; for `Nc1ncnc2nc[nH]c12`: greater than 250 µM.
`CN1CCOC(c2ccc(Cl)cc2)O1` (configuration not stated) displayed a TGI greater than 100 µM.
`CCOc1ccc(NC(=O)C(=O)CC(=O)c2sc(NNC(C)=O)nc2C)cc1` had a TGI greater than 100 µM.

In the next test the test system is HL-60(TB) leukemia. Nature of the test: NCI tumour cell line growth inhibition, 48 h.
In turn, `O=C(O)c1cc([N+](=O)[O-])cc2c(=O)c3cnccc3[nH]c12` displayed a TGI greater than 100 µM.
For `CCCCCCCCCCCCCCCCCCOc1ccccc1CC(=O)OCC[N+]1(C)CCCCC1`, the GI50 is 1.92 µM and the TGI turned out to be 4.36 µM.
`CN1CCc2[nH]c3ccccc3c2C1` showed a TGI greater than 100 µM.
Same read-out and setting: for `C[C@]12C=CC(=O)C=C1CC[C@@H]1[C@@H]2CC[C@]2(C)OC(=O)CC[C@@H]12` the value was 476 µM; for `Nc1ncnc2nc[nH]c12`, 228 µM.
For `CCOc1ccc(NC(=O)C(=O)CC(=O)c2sc(NNC(C)=O)nc2C)cc1`, the TGI is greater than 100 µM.

In another test the test system is HOP-62 NSCLC. Nature of the test: NCI tumour cell line growth inhibition, 48 h.
Turning to `O=C(O)c1cc([N+](=O)[O-])cc2c(=O)c3cnccc3[nH]c12`, the TGI is greater than 100 µM.
On the same count and under the same terms, for `Nc1ncnc2c1ncn2C=C=CCO` the value was greater than 100 µM.
On the same count and under the same terms, for `CN1CCc2[nH]c3ccccc3c2C1` the value was greater than 100 µM; for `C[C@]12C=CC(=O)C=C1CC[C@@H]1[C@@H]2CC[C@]2(C)OC(=O)CC[C@@H]12`, greater than 471 µM; for `Nc1ncnc2nc[nH]c12`, greater than 250 µM.
On the same count and under the same terms, for `CN1CCOC(c2ccc(Cl)cc2)O1` (configuration not stated) the value was greater than 100 µM; for `CCOc1ccc(NC(=O)C(=O)CC(=O)c2sc(NNC(C)=O)nc2C)cc1`, greater than 100 µM.

The next test relates to LOX IMVI melanoma. The experiment in a line: NCI tumour cell line growth inhibition, 48 h.
As for `CCCCCCCCCCCCCCCCCCOc1ccccc1CC(=O)OCC[N+]1(C)CCCCC1`, the GI50 was 1.75 µM and the TGI is 3.18 µM.
`Nc1ncnc2c1ncn2C=C=CCO`: the TGI is greater than 100 µM.
Same read-out and setting: for `CN1CCc2[nH]c3ccccc3c2C1` the value was greater than 100 µM; for `C[C@]12C=CC(=O)C=C1CC[C@@H]1[C@@H]2CC[C@]2(C)OC(=O)CC[C@@H]12`, greater than 500 µM.
The same measure, in the same setting: the same measure for `Nc1ncnc2nc[nH]c12`: greater than 250 µM; for `CCOc1ccc(NC(=O)C(=O)CC(=O)c2sc(NNC(C)=O)nc2C)cc1`: greater than 100 µM.

The test system of the next test is M14 melanoma. Nature of the test: NCI tumour cell line growth inhibition, 48 h.
Turning to `O=C(O)c1cc([N+](=O)[O-])cc2c(=O)c3cnccc3[nH]c12`, the TGI was greater than 100 µM.
Turning to `CCCCCCCCCCCCCCCCCCOc1ccccc1CC(=O)OCC[N+]1(C)CCCCC1`, the GI50 was 2.52 µM and the TGI came to 6.58 µM.
Regarding `Nc1ncnc2c1ncn2C=C=CCO`, the TGI is greater than 100 µM.
On the same count and under the same terms, for `C[C@]12C=CC(=O)C=C1CC[C@@H]1[C@@H]2CC[C@]2(C)OC(=O)CC[C@@H]12` the value was greater than 500 µM; for `CN1CCOC(c2ccc(Cl)cc2)O1` (configuration not stated), greater than 100 µM; for `CCOc1ccc(NC(=O)C(=O)CC(=O)c2sc(NNC(C)=O)nc2C)cc1`, greater than 100 µM.

The subject of another test is MALME-3M melanoma. The experiment in a line: NCI tumour cell line growth inhibition, 48 h.
Take `O=C(O)c1cc([N+](=O)[O-])cc2c(=O)c3cnccc3[nH]c12`: the TGI is greater than 100 µM.
Regarding `CCCCCCCCCCCCCCCCCCOc1ccccc1CC(=O)OCC[N+]1(C)CCCCC1`, the GI50 was 1.97 µM and the TGI was 4.86 µM.
The molecule `Nc1ncnc2c1ncn2C=C=CCO` yielded a TGI greater than 100 µM.
Same read-out and setting: the same measure for `CN1CCc2[nH]c3ccccc3c2C1`: greater than 100 µM; for `C[C@]12C=CC(=O)C=C1CC[C@@H]1[C@@H]2CC[C@]2(C)OC(=O)CC[C@@H]12`: greater than 500 µM.
For the molecule `Nc1ncnc2nc[nH]c12`, the GI50 is 86 µM and the TGI was greater than 232 µM.
`CN1CCOC(c2ccc(Cl)cc2)O1` (configuration not stated) registered a TGI greater than 100 µM.

The next test relates to OVCAR-3 ovarian. Nature of the test: NCI tumour cell line growth inhibition, 48 h.
Molecule `O=C(O)c1cc([N+](=O)[O-])cc2c(=O)c3cnccc3[nH]c12` yielded a TGI greater than 100 µM.
Same read-out and setting: for `Nc1ncnc2c1ncn2C=C=CCO` the value was greater than 100 µM.
The same measure, in the same setting: the same measure for `CN1CCc2[nH]c3ccccc3c2C1`: greater than 100 µM; for `C[C@]12C=CC(=O)C=C1CC[C@@H]1[C@@H]2CC[C@]2(C)OC(=O)CC[C@@H]12`: greater than 500 µM.
As to `Nc1ncnc2nc[nH]c12`, the GI50 is 113 µM and the TGI was greater than 250 µM.
As for `CN1CCOC(c2ccc(Cl)cc2)O1` (configuration not stated), the TGI was greater than 100 µM.

In another test the test system is RXF 393 renal. Nature of the test: NCI tumour cell line growth inhibition, 48 h.
`O=C(O)c1cc([N+](=O)[O-])cc2c(=O)c3cnccc3[nH]c12`: the TGI was greater than 100 µM.
Still for that read-out and setting: for `Nc1ncnc2c1ncn2C=C=CCO` the value was greater than 100 µM; for `CN1CCc2[nH]c3ccccc3c2C1`, greater than 100 µM.
`C[C@]12C=CC(=O)C=C1CC[C@@H]1[C@@H]2CC[C@]2(C)OC(=O)CC[C@@H]12` yielded a TGI greater than 485 µM.
On the same count and under the same terms, the same measure for `Nc1ncnc2nc[nH]c12`: 88 µM.
Same read-out and setting: the same measure for `CN1CCOC(c2ccc(Cl)cc2)O1` (configuration not stated): greater than 100 µM; for `CCOc1ccc(NC(=O)C(=O)CC(=O)c2sc(NNC(C)=O)nc2C)cc1`: greater than 100 µM.

For another test, the system named is SF-295 CNS. The experiment in a line: NCI tumour cell line growth inhibition, 48 h.
As to `O=C(O)c1cc([N+](=O)[O-])cc2c(=O)c3cnccc3[nH]c12`, the TGI was greater than 100 µM.
With `CCCCCCCCCCCCCCCCCCOc1ccccc1CC(=O)OCC[N+]1(C)CCCCC1`, the GI50 was 2.93 µM and the TGI was 9.62 µM.
In turn, `Nc1ncnc2c1ncn2C=C=CCO` had a TGI greater than 100 µM.
In turn, `CN1CCc2[nH]c3ccccc3c2C1` showed a TGI greater than 100 µM.
On the same count and under the same terms, the same measure for `C[C@]12C=CC(=O)C=C1CC[C@@H]1[C@@H]2CC[C@]2(C)OC(=O)CC[C@@H]12`: greater than 500 µM; for `Nc1ncnc2nc[nH]c12`: greater than 250 µM.
`CN1CCOC(c2ccc(Cl)cc2)O1` (configuration not stated): the TGI is greater than 100 µM.
`CCOc1ccc(NC(=O)C(=O)CC(=O)c2sc(NNC(C)=O)nc2C)cc1`: the TGI is greater than 100 µM.

Another test relates to UACC-257 melanoma. The experiment in a line: NCI tumour cell line growth inhibition, 48 h.
For the molecule `CCCCCCCCCCCCCCCCCCOc1ccccc1CC(=O)OCC[N+]1(C)CCCCC1`, the GI50 is 2.79 µM and the TGI was 7.91 µM.
As to `Nc1ncnc2c1ncn2C=C=CCO`, the TGI is greater than 100 µM.
Molecule `CN1CCc2[nH]c3ccccc3c2C1` had a TGI greater than 100 µM.
Take `C[C@]12C=CC(=O)C=C1CC[C@@H]1[C@@H]2CC[C@]2(C)OC(=O)CC[C@@H]12`: the TGI was greater than 500 µM.
For the molecule `Nc1ncnc2nc[nH]c12`, the TGI was greater than 250 µM.
Still for that read-out and setting: the same measure for `CN1CCOC(c2ccc(Cl)cc2)O1` (configuration not stated): greater than 100 µM.
Still for that read-out and setting: the same measure for `CCOc1ccc(NC(=O)C(=O)CC(=O)c2sc(NNC(C)=O)nc2C)cc1`: greater than 100 µM.
